# Source: patent publication US11833137B2, “Substituted chromenones, IRE1 inhibitors, and methods of using same” (The Wistar Institute, priority 2018, dated 2023)
# Experiments:
# [1] = test system: 5TGM1 cells; experiment: Cell proliferation XTT assay, 5TGM1; type: cell-based, mouse; conditions: 20 μM for a course of 3 days
# Procedure: 5TGM1 cells were suspended in phenol red-free RPMI media, seeded in 96-well cell culture plates, and treated with indicated IRE1 inhibitors (20 μM, unless indicated otherwise). At indicated time points, cells were spun down and cell proliferation was assessed by XTT assays (Roche) according to the manufacturer's instructions. Briefly, 50 μl XTT labeling reagent, 1 μl electron-coupling reagent, and 100 μl phenol red-free RPMI media were combined and applied to each well of the 96-well plates. Cells were incubated for 4 h in a CO2 incubator to allow for the yellow tetrazolium salt XTT to be cleaved by mitochondrial dehydrogenases of metabolically active cells to form the orange formazan dye, which can be quantified at 492 nm using a BioTek SYNERGY™ NEO2 Multimode Reader.
# [2] = Fluorescence stability (decomposition) in aqueous solution; type: physicochemical; conditions: PBS with 1% DMSO, 37° C., 48 h, from 100%
# Procedure: (FIG. 2B) 5TGM1 cells were treated with DMSO or with 20 μM 2, 4, 3, or 7 dissolved in DMSO for 3 days and subjected to XTT assays. Percentages of growth were determined by comparing treated groups with control groups (DMSO). Each data point derived from four independent groups receiving exactly the same treatment was plotted as mean±SD. Results are representative of three independent experiments. […] The values of I/I0 were plotted as a function of time and shown in the inset. I0 was the initial fluorescence intensity of 4 at 0 h. […] The values of I/I0 were plotted as a function of time and shown in the inset. I0 was the initial fluorescence intensity of 5 at 0 h. […] (FIG. 2G) The decomposition rates of 7 and 8 were plotted as a function of time in RPMI media incubated at 37° C. Aliquots were analyzed by HPLC and the peaks integrated.
# FIGS. 5A-5J illustrate the finding that installation of a boronate cage cleavable by H2O2 stabilizes the 1,3-dioxane acetal protective group of D-F07 to allow for temporal inhibition of XBP-1s upon contact with H2O2. (FIG. 5A) A scheme showing that installation of a boronate-caged group stabilizes the 1,3-dioxane acetal protective group to allow for H2O2-mediated release of intact D-F07. (FIG. 5B) The fluorescence of BC-D-F07a (2.5 μM in the DMSO/PBS solution (v/v=1:99), Ex=360 nm) increases upon incubation with 0 to 200 μM hydrogen peroxide at room temperature for 1 h. (FIG. 5C) The fluorescence of BC-D-F07b (2.5 μM in the DMSO/PBS solution (v/v=1:99), Ex=360 nm) increases upon incubation with 0 to 2 mM hydrogen peroxide at 37° C. for 1 h. […] I0 was the initial fluorescence intensity of D-F07, BC-D-F07a or BC-D-F07b at 0 h. (FIG. 5E) The levels of hydrogen peroxide produced by 5TGM1, 72-h LPS-stimulated primary CLL, MEC2, and WaC3 cells were measured by Amplex Red with or without the addition of extracellular catalase (500 U/mL). (FIG. 5F) 5TGM1 cells were treated with BC-D-F07a at increasing concentrations for 24 h, lysed, and analyzed for the expression of indicated proteins by immunoblots. (FIG. 5G) CD5+ CLL cells purified from spleens of Eμ-TCL1 mice were stimulated with […], subsequently treated with BC-D-F07a at 20 μM for 16 h, and then incubated with hydrogen peroxide at indicated concentrations for another 4 h. Cells were lysed and analyzed for the expression of indicated proteins by immunoblots. […] Cells were lysed and analyzed for the expression of indicated proteins by immunoblots. […] Percentages of growth were determined by comparing treated groups with control groups (DMSO). […]
# UV-vis and fluorescence spectra were carried out on a BioTek SYNERGY™ NEO2 instrument (96 well plate).
# [3] = test system: secretory IgM, B cells; conditions: cited from earlier work
compound,measurement,setting,value
"O=c1oc2c(C3OCCCO3)c(O)ccc2c2c1CNCC2 [Compound 4, 7-(1,3-dioxan-2-yl)-8-hydroxy-1,2,3,4-tetrahydro-5H-chromeno[3,4-c]pyridin-5-one]",growth inhibition / cytotoxicity (XTT),[1],more potent than their respective aldehyde counterparts
same,fluorescence intensity remaining (decomposition),[2],5.1%
same,production of sIgM by treated B cells,[3],inefficient in producing sIgM
